ChEMBL document CHEMBL4325871 (Eur J Med Chem, 2019)

Tests used:
[1] = target: Serine/threonine-protein kinase PLK3 (Homo sapiens) (UniProt Q9H4B4); assay: Inhibition of human PLK3 assessed as residual activity at 1 uM using casein as substrate by [gamma-33P]-ATP assay relative to control
[2] = target: Fibroblast growth factor receptor 3 (Homo sapiens) (UniProt P22607); assay: Inhibition of human FGFR3 assessed as residual activity at 1 uM using poly[Glu:Tyr] (4:1) as substrate by [gamma-33P]-ATP assay relative to control
[3] = target: Mitogen-activated protein kinase 15 (Homo sapiens) (UniProt Q8TD08); assay: Inhibition of human ERK7 assessed as residual activity at 1 uM using MBP as substrate by [gamma-33P]-ATP assay relative to control
Sequence of Mitogen-activated protein kinase 15 (Homo sapiens) (Q8TD08 whole entry): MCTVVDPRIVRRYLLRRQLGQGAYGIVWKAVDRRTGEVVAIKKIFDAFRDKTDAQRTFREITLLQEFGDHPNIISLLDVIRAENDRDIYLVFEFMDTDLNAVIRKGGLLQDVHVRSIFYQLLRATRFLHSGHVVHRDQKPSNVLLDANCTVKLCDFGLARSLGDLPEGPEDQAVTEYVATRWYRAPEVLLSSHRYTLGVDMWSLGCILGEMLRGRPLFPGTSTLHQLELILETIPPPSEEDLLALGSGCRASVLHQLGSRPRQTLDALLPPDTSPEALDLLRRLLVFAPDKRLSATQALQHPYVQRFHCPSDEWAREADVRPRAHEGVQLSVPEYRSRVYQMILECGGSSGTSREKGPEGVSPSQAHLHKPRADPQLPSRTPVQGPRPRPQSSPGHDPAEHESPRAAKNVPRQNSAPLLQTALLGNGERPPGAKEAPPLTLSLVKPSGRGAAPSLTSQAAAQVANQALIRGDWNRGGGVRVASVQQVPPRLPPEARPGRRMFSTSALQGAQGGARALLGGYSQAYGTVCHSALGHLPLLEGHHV

[4] = target: Kinase suppressor of Ras 2 (Homo sapiens) (UniProt Q6VAB6); assay: Inhibition of human KSR2 assessed as residual activity at 1 uM using KRREILSRRPSYR as substrate by [gamma-33P]-ATP assay relative to control
Sequence of Kinase suppressor of Ras 2 (Homo sapiens) (Q6VAB6 whole entry): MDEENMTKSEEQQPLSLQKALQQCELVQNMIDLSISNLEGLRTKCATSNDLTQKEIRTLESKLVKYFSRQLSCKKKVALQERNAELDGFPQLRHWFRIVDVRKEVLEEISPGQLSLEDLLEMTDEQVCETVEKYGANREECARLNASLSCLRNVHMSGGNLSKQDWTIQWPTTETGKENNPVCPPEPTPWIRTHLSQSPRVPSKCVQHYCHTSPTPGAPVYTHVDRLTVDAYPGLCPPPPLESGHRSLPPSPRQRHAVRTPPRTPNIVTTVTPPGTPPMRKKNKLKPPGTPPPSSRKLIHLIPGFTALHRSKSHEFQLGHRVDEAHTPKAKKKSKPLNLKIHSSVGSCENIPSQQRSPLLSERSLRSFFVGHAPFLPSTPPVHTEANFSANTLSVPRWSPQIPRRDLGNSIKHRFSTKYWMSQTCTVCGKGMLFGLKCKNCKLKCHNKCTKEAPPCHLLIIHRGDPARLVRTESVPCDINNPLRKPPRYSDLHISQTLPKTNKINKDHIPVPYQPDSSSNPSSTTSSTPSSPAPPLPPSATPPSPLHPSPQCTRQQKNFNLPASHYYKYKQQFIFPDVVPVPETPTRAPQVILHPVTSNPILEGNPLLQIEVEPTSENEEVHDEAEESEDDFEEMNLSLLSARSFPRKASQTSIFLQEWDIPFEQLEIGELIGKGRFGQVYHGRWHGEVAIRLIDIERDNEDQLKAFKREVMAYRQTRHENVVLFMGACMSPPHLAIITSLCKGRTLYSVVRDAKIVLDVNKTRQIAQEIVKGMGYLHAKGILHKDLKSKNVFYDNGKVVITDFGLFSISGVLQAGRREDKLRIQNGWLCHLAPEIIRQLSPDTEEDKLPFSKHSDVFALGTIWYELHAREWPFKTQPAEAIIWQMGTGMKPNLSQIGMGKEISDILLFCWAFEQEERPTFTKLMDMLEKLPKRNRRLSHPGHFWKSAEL

[5] = target: Calcium/calmodulin-dependent protein kinase type 1D (Homo sapiens) (UniProt Q8IU85); assay: Inhibition of human CAMK1D assessed as residual activity at 1 uM using KKALRRQETVDAL as substrate by [gamma-33P]-ATP assay relative to control
[6] = target: Serine/threonine-protein kinase/endoribonuclease IRE2 (Homo sapiens) (UniProt Q76MJ5); assay: Inhibition of human ERN2 assessed as residual activity at 1 uM using MBP as substrate by [gamma-33P]-ATP assay relative to control
Sequence of Serine/threonine-protein kinase/endoribonuclease IRE2 (Homo sapiens) (Q76MJ5 35-926 limits assumed): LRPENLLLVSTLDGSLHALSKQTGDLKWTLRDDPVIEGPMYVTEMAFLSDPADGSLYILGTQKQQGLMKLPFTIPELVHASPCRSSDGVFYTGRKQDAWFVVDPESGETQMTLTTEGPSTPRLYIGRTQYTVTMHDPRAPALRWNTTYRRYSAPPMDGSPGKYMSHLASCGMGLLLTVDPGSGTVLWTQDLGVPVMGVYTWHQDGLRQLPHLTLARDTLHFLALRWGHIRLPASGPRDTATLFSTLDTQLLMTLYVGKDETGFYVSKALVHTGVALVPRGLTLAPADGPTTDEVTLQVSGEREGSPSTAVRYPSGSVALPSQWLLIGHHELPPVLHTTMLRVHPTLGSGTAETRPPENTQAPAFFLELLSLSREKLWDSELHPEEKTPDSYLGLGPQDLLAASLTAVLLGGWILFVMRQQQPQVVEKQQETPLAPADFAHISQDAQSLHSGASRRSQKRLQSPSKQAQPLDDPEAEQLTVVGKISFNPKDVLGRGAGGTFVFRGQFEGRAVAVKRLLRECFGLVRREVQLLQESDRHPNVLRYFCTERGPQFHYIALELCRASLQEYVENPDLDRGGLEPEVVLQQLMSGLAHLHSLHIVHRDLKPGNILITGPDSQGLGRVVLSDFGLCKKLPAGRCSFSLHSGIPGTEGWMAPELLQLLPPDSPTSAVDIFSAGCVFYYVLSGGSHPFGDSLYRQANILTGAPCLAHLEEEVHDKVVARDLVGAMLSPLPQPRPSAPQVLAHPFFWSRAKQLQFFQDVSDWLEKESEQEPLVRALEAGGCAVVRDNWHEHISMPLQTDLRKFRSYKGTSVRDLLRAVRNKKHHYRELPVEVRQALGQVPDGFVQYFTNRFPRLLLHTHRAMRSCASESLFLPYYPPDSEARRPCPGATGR

[7] = target: Calcium/calmodulin-dependent protein kinase type II subunit alpha (Homo sapiens) (UniProt Q9UQM7); assay: Inhibition of human CAMK2A assessed as residual activity at 1 uM using KKALRRQETVDAL as substrate by [gamma-33P]-ATP assay relative to control
Sequence of Calcium/calmodulin-dependent protein kinase type II subunit alpha (Homo sapiens) (Q9UQM7 whole entry): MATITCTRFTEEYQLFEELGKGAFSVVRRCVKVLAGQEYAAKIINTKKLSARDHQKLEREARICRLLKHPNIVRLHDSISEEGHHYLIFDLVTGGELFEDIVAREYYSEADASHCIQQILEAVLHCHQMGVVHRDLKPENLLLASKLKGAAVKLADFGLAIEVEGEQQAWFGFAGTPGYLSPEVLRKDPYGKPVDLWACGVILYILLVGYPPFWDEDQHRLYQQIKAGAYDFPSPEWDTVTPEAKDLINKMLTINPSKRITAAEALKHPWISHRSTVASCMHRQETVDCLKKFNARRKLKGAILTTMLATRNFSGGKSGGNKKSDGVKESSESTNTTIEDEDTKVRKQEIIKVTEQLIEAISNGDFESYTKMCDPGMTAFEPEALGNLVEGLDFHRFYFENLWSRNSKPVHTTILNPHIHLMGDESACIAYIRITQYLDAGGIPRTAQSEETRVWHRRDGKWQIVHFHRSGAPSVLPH

[8] = target: Tyrosine-protein kinase Lck (Homo sapiens) (UniProt P06239); assay: Inhibition of human LCK assessed as residual activity at 1 uM using poly[Glu:Tyr] (4:1) as substrate by [gamma-33P]-ATP assay relative to control
[9] = target: Receptor tyrosine-protein kinase erbB-2 (Homo sapiens) (UniProt P04626); assay: Inhibition of human ERBB2 assessed as residual activity at 1 uM using poly[Glu:Tyr] (4:1) as substrate by [gamma-33P]-ATP assay relative to control
[10] = target: Tyrosine-protein kinase HCK (Homo sapiens) (UniProt P08631); assay: Inhibition of human HCK assessed as residual activity at 1 uM using KVEKIGEGTYGVVYK as substrate by [gamma-33P]-ATP assay relative to control
Sequence of Tyrosine-protein kinase HCK (Homo sapiens) (P08631 2-526 limits assumed): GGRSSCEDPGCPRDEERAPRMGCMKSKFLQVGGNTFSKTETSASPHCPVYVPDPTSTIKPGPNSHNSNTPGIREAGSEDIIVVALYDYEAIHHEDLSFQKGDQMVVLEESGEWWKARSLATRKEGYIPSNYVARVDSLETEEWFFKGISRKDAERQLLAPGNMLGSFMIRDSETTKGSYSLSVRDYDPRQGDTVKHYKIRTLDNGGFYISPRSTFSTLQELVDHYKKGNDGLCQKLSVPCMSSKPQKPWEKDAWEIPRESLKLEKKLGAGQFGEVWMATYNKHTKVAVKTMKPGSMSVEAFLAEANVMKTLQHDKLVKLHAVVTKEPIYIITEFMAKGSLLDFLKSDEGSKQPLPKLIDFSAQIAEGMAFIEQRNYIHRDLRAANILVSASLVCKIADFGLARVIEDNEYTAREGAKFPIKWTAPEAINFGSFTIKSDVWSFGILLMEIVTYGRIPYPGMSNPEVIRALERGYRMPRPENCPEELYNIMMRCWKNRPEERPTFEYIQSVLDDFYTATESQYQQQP

[11] = target: Serine/threonine-protein kinase PLK2 (Homo sapiens) (UniProt Q9NYY3); assay: Inhibition of human PLK2 assessed as residual activity at 1 uM using casein as substrate by [gamma-33P]-ATP assay relative to control
[12] = target: Misshapen-like kinase 1 (Homo sapiens) (UniProt Q8N4C8); assay: Inhibition of human MINK1 assessed as residual activity at 1 uM using MBP as substrate by [gamma-33P]-ATP assay relative to control
[13] = target: Myosin-IIIb (Homo sapiens) (UniProt Q8WXR4); assay: Inhibition of human MYO3B assessed as residual activity at 1 uM using MBP as substrate by [gamma-33P]-ATP assay relative to control
[14] = target: STE20/SPS1-related proline-alanine-rich protein kinase (Homo sapiens) (UniProt Q9UEW8); assay: Inhibition of human STK39 assessed as residual activity at 1 uM using MBP as substrate by [gamma-33P]-ATP assay relative to control
[15] = target: NUAK family SNF1-like kinase 1 (Homo sapiens) (UniProt O60285); assay: Inhibition of human ARK5 assessed as residual activity at 1 uM using KKKVSRSGLYRSPSMPENLNRPR as substrate by [gamma-33P]-ATP assay relative to control
Sequence of NUAK family SNF1-like kinase 1 (Homo sapiens) (O60285 whole entry): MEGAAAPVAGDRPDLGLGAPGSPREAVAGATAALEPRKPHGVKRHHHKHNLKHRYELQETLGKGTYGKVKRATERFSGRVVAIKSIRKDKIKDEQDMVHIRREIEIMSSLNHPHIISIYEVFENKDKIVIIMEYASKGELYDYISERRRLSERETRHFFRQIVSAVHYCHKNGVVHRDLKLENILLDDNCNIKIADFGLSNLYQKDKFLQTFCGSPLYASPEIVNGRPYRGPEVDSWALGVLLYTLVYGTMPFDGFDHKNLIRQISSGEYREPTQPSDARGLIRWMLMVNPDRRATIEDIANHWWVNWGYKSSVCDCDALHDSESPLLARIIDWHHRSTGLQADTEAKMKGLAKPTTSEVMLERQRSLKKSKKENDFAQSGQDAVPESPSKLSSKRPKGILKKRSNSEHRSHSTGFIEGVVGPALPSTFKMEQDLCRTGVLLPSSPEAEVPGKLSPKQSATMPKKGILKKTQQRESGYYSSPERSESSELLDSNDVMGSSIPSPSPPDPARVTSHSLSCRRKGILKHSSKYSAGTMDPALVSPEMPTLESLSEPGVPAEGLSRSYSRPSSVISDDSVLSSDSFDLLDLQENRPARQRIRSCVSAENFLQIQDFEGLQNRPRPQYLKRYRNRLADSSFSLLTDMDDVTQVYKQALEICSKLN

[16] = target: CDK2/Cyclin A2 (Homo sapiens) (UniProt P24941+P20248); assay: Inhibition of human CDK2/cyclin-A assessed as residual activity at 1 uM using histone H1 as substrate by [gamma-33P]-ATP assay relative to control; format: protein-complex assay

Sequence of Serine/threonine-protein kinase PLK3 (Homo sapiens) (Q9H4B4 whole entry, looked up): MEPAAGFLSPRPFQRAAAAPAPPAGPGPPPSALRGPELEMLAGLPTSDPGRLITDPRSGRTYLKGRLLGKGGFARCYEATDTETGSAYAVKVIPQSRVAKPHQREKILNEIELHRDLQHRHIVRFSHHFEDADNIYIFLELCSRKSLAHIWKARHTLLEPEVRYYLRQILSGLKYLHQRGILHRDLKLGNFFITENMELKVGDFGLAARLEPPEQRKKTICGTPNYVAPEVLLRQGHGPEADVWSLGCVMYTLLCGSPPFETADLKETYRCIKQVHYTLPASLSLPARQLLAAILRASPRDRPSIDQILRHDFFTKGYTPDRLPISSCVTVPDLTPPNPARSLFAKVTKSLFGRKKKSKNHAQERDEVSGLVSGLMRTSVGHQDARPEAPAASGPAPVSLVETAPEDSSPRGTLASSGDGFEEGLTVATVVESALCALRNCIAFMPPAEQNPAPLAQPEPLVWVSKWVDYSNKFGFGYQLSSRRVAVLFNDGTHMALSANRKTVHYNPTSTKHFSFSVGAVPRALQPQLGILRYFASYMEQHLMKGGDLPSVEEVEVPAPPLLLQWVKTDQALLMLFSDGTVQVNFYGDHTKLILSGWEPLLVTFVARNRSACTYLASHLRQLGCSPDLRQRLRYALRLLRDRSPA

| SMILES | Activity [1] [%] | Activity [2] [%] | Activity [3] [%] | Activity [4] [%] | Activity [5] [%] | Activity [6] [%] | Activity [7] [%] | Activity [8] [%] | Activity [9] [%] | Activity [10] [%] | Activity [11] [%] | Activity [12] [%] | Activity [13] [%] | Activity [14] [%] | Activity [15] [%] | Activity [16] [%] |
| --- | --- | --- | --- | --- | --- | --- | --- | --- | --- | --- | --- | --- | --- | --- | --- | --- |
| C(=C\c1ccccc1)/C[N+]12CN3CN(CN(C3)C1)C2 | 96.3 to 96.8 | 93.8 to 94.8 | 95 to 96.7 | 90.5 to 97 | 98.4 to 98.8 | 94.5 to 96.6 | 93.1 to 94.1 | 94.2 to 95.5 | – | – | – | – | – | – | – | – |
| ClC/C=C/C[N+]12CN3CN(CN(C3)C1)C2 | – | – | – | – | – | – | – | – | 96.7 to 96.8 | 93.1 to 95.5 | 96.6 to 96.8 | 91.9 to 94.8 | 84.1 to 87.7 | 94.4 to 94.9 | 87.9 to 94.8 | 97.3 to 97.8 |
